In patent US12661359B2 (Madrigal Pharmaceuticals, Inc., priority 2021, dated 2026):
Blank lines part the entries; values can stand above or below the compound they belong to.

Tests used:
[1] = biological target: T1, human OSTαβ (Homo sapiens, UniProt Q86UW1+Q86UW2); experiment: OSTαβ-mediated transport in transfected MDCK-II cells versus control cells
T1 sequence (Q86UW1 1-340): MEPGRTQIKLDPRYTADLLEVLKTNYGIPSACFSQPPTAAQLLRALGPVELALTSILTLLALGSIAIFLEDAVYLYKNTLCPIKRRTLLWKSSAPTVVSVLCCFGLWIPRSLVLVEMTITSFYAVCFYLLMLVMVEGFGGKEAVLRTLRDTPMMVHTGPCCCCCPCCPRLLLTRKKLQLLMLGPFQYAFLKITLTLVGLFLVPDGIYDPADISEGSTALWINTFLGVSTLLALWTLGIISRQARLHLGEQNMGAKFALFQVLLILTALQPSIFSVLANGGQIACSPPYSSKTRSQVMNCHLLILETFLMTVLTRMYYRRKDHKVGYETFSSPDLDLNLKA
T1 sequence (Q86UW2 1-128): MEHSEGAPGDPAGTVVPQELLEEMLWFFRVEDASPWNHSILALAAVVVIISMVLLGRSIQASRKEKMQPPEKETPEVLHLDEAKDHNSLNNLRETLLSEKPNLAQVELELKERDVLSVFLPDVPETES
Description: Transfected cells and control cells are both exposed to the compound, and the concentration of the compound in the transfected cells and the control cells are then measured. An uptake ratio can then be calculated to quantify the difference of the concentration, indicating whether OSTαβ mediates the transport of the compound.
MGL-3196 was tested as a potential substrate for human OSTαβ-mediated transport.

[2] = human, in vivo
[3] = clinical; details: human, in vivo; for AUC(0-inf): AUCinf; for AUC(0-t): AUClast
[4] = biological target: T2, BCRP (Homo sapiens, UniProt Q9UNQ0); experiment: BCRP inhibition and DDI R-value assessment; format: in vitro ADME
T2 sequence (Q9UNQ0 1-655): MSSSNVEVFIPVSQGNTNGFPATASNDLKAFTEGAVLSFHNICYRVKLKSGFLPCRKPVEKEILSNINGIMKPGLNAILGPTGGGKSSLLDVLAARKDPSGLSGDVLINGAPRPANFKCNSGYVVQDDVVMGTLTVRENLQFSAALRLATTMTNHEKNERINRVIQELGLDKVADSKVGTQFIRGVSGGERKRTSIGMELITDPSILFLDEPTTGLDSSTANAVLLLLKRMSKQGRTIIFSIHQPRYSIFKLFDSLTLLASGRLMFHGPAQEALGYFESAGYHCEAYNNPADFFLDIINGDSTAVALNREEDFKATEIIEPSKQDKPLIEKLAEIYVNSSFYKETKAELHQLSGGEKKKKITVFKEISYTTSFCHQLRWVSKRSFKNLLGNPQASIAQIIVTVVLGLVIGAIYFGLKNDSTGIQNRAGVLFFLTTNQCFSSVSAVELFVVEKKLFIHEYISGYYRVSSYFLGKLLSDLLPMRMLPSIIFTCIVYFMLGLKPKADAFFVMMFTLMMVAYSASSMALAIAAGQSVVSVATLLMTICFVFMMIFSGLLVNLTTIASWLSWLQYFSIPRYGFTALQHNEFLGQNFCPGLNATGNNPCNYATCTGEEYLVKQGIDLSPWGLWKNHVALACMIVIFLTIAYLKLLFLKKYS
From the text: (§1) Based on the predicted gut-wall BCRP interaction (R=33.5), there is a possible contribution of gut BCRP inhibition to drug interactions.

[5] = cited from earlier work
[6] = system: patients with NASH; details: cited from earlier work
[7] = biological target: P-gp (Homo sapiens, UniProt P08183); experiment: P-gp inhibition; format: in vitro ADME
From the text: as §1

[8] = system: patients with heterozygous familial hypercholesterolemia (HeFH); experiment: Phase 2 trial MGL-3196-06 (NCT03038022) in HeFH patients; format: in vivo, human; details: MGL-3196 100 mg once daily, 12 weeks
Description: A Phase 2 clinical trial was conducted in 116 patients with proven heterozygous familial hypercholesterolemia (HeFH). The primary endpoint was reduction in LDL-C compared with placebo and secondary endpoints included effects on additional lipids and lipoproteins.
MGL-3196-06 (NCT03038022) was a 12-week multicenter, randomized, double blind, placebo-controlled trial in HeFH patients not at LDL-C target on maximally tolerated statins. Patients received MGL-3196 100 mg or placebo once daily for 12 weeks (in a 2:1 ratio) in addition to their LDL-C lowering regimen.

Chain of P-gp (P08183 whole entry): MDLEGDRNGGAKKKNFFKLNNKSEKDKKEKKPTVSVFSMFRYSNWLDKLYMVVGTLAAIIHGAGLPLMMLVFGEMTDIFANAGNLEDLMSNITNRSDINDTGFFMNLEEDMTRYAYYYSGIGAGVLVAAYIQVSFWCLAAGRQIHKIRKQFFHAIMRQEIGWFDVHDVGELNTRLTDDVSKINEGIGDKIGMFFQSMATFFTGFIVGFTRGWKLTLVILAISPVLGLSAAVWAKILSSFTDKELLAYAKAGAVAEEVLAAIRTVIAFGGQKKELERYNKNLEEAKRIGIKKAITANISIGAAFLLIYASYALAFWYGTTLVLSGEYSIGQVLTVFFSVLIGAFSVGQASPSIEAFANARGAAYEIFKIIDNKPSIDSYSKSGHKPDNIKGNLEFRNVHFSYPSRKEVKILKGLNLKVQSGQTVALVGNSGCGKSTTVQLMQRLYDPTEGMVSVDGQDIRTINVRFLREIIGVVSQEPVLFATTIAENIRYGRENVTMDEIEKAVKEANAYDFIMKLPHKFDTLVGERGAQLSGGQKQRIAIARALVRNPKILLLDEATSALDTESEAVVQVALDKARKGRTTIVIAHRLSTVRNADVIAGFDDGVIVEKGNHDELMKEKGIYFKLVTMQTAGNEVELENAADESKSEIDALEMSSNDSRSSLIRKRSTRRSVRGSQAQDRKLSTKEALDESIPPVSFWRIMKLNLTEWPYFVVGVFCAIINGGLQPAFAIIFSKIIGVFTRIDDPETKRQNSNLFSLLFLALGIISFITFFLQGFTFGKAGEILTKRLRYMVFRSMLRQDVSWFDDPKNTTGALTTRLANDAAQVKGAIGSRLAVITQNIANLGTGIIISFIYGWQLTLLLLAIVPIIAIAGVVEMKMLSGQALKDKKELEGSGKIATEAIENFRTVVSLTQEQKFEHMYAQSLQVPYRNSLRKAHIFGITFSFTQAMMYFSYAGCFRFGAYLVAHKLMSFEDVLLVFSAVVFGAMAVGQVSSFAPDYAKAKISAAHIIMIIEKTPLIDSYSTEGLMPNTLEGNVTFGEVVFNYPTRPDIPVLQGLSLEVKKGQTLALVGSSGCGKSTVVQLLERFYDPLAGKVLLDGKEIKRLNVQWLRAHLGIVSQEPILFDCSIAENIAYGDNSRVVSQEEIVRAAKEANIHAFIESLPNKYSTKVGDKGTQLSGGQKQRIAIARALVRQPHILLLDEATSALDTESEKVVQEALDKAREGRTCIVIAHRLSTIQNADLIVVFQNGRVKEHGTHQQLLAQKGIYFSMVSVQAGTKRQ

SMILES: C[C@H](CCC(=O)NCCS(=O)(=O)O)[C@H]1CC[C@H]2[C@@H]3[C@H](O)C[C@@H]4C[C@H](O)CC[C@]4(C)[C@H]3C[C@H](O)[C@]12C [taurocholic acid, reference compound]
- Net accumulation ([1]; 1 μM substrate): 0.0809 ± 0.0105 pmol/min/cm^2
- Accumulation in transporter cells ([1]; 1 μM substrate, OSTαβ MDCK-II cells): 0.109 ± 0.0105 pmol/min/cm^2

- Accumulation in control cells ([1]; dog, MDCK, 1 μM): 0.0557 ± 0.00359 pmol/min/cm^2
- Accumulation in control cells ([1]; dog, MDCK, 10 μM): 0.297 ± 0.0377 pmol/min/cm^2
- Accumulation in control cells ([1]; human, MDCK, 0.1 μM): 0.00664 ± 0.00215 pmol/min/cm^2
- Accumulation in transporter cells ([1]; human, MDCK, 0.1 μM): 0.00894 ± 0.000845 pmol/min/cm^2
- Net accumulation ([1]; human, MDCK, 0.1 μM): 0.0023 ± 0.000845 pmol/min/cm^2
- Accumulation in transporter cells ([1]; human, MDCK, 1 μM): 0.0575 ± 0.00167 pmol/min/cm^2
- Net accumulation ([1]; human, MDCK, 1 μM): 0.00176 ± 0.00167 pmol/min/cm^2
- Accumulation in transporter cells ([1]; human, MDCK, 10 μM): 0.459 ± 0.0599 pmol/min/cm^2
- Net accumulation ([1]; human, MDCK, 10 μM): 0.162 ± 0.0599 pmol/min/cm^2
- Cmax, geometric mean [2]: 3.11 ng/mL
- % AUCexts, mean ([2]; 10 mg): 10.6%
- Cmax, mean ([2]; 10 mg): 3.62 ng/mL
- T1/2, mean ([2]; 10 mg): 18.2 h
- AUC(0-inf) ([3]; 10 mg, mean): 51.7 ng·h/mL
- AUC(0-t) ([3]; 10 mg, mean): 44.5 ng·h/mL
- Tmax ([3]; 10 mg, Tmax, mean): 4.56 h
- AUC(0-inf) ([3]; geometric mean): 46.6 ng·h/mL
- AUC(0-t) ([3]; geometric mean): 38 ng·h/mL
SMILES: CC(C)c1nc(N(C)S(C)(=O)=O)nc(-c2ccc(F)cc2)c1/C=C/[C@@H](O)C[C@@H](O)CC(=O)O [rosuvastatin, (E)-7-[4-(4-fluorophenyl)-6-isopropyl-2-[methyl(methylsulfonyl)amino]pyrimidin-5-yl](3R,5S)-3,5-dihydroxyhept-6-enoic acid, reference compound]

- Inhibition of BCRP (in words) [4]: moderate inhibitor
- DDI R-value ([4]; Biliary/renal/BBB, [Ifree]/IC50 ≥ 0.02): 0.004
- DDI R-value ([4]; Intestine, [I2]/IC50 ≥ 10, predicted gut-wall BCRP interaction): 33.5
- Substrate for human OSTαβ (conclusion in words) ([1]; MDCK): may be a substrate
- Accumulation in control cells ([1]; dog, MDCK, 1 μM): 1.91 ± 0.220 pmol/min/cm^2
- Accumulation in control cells ([1]; dog, MDCK, 10 μM): 11.3 ± 0.500 pmol/min/cm^2
- Accumulation in control cells ([1]; dog, MDCK, 100 μM): 49.3 ± 6.28 pmol/min/cm^2
- Accumulation in transporter cells ([1]; human, MDCK, 1 μM): 2.58 ± 0.103 pmol/min/cm^2
- Net accumulation ([1]; human, MDCK, 1 μM): 0.670 ± 0.103 pmol/min/cm^2
- Accumulation in transporter cells ([1]; human, MDCK, 10 μM): 21.9 ± 0.810 pmol/min/cm^2
- Net accumulation ([1]; human, MDCK, 10 μM): 10.6 ± 0.810 pmol/min/cm^2
- Accumulation in transporter cells ([1]; human, MDCK, 100 μM): 137 ± 12.8 pmol/min/cm^2
- Net accumulation ([1]; human, MDCK, 100 μM): 88.1 ± 12.8 pmol/min/cm^2
- Inhibition of P-gp (in words) [7]: not an inhibitor
SMILES: CC(C)c1cc(Oc2c(Cl)cc(-n3nc(C#N)c(=O)[nH]c3=O)cc2Cl)n[nH]c1=O [MGL-3196, 2-(3,5-dichloro-4-((5-isopropyl-6-oxo-1,6-dihydropyridazin-3-yl)oxy)phenyl)-3,5-dioxo-2,3,4,5-tetrahydro-1,2,4-triazine-6-carbonitrile]
- Effect on elevated liver enzymes ([5]; NASH patients): reduces elevated liver enzymes
- Safety profile ([5]; in vivo): clean safety profile
- Suppression of the central thyroid axis, THR-α effects on heart rate or bone ([5]; in vivo): neither suppression of the central thyroid axis nor THR-α effects on heart rate or bone
- Reducing hepatic fat compared to placebo ([6]; after 12 weeks and 36 weeks of treatment): effective
- Improving markers of liver injury and fibrosis compared to placebo [6]: effective
- Reducing atherogenic lipids and lipoproteins (LDL cholesterol, apolipoprotein B, triglycerides, lipoprotein(a), apolipoprotein CIII) compared to placebo [6]: effective
- Safety issues such as liver enzyme or creatine kinase (CK) elevations [2]: no safety issues were observed
- LDL-C and other atherogenic lipids lowering in patients with HeFH ([8]; versus placebo): statistically significantly lowers
- Apolipoprotein B (ApoB) lowering ([8]; versus placebo, p<0.0001): −18-29%
- Apolipoprotein CIII (Apo CIII) lowering ([8]; versus placebo, p<0.0001): −22%
- Lipoprotein (a) (Lp(a)) lowering ([8]; versus placebo, p<0.0001): −26-33%
- Triglyceride (TG) lowering ([8]; versus placebo, p<0.0001): −25-31%
- LDL-C lowering compared to placebo ([8]; prespecified group of patients intolerant of high intensity statin doses): 28.5%
